In one data set the test system is TDP-43 transgenic mice. As to the kind of experiment: TDP-43 transgenic mice (ALS): rotarod and grip strength. Format: in vivo.
A further data set has as its target human A2AR (Homo sapiens, UniProt P29274). Kind of data set: A2AR radioligand binding assay (3H-CGS21680).
Data set [1] concerns the target T1, adenosine transporter (ENT1) (Cavia porcellus, UniProt H0V4R7).
T1 sequence (H0V4R7 1-461): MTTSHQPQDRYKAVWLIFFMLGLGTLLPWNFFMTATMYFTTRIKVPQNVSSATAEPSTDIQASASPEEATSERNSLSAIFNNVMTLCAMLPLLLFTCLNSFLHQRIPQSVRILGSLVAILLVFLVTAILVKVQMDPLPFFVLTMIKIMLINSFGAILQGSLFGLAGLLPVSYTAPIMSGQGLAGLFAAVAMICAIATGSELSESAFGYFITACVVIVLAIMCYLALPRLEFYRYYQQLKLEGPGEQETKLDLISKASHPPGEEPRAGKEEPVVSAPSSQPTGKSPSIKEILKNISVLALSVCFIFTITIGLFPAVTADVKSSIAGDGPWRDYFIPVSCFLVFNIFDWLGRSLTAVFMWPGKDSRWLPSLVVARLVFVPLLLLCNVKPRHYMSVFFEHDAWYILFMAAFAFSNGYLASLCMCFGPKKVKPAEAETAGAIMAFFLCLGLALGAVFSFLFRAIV
As to the kind of experiment: Adenosine transporter (ENT1) radioligand binding assay (3H-NBTI).
Procedure: (§1) Binding of the indicated compounds to A2A adenosine receptor (A2AR) and an adenosine transporter (ENT1) was characterized using standard binding protocols.
(§2) Radioligand binding assays. Radioligand binding assays were performed by MDS Pharma Services Taiwan (Taipei, Taiwan) using standard binding protocols. For A2AR binding assays, membrane proteins collected from HEK293 cells overexpressing human A2AR were incubated in the reaction buffer [50 mM Tris-HCl (pH 7.4), 10 mM MgCl2, 1 mM EDTA, and 2 U/mL adenosine deaminase] containing ^3H-CGS21680 (50 nM) for 90 min at 25° C. Nonspecific binding was assessed in the presence of 50 μM adenosine-5′-N-ethylcarboxamide. […] Binding assays for adenosine transporters were conducted as described earlier. Membrane fractions collected from the cerebral cortex of Duncan Hartley-derived guinea pigs were incubated with ^3H-labeled 6-[(4-nitrobenzyl)thio]-9-β-D-ribofuranosylpurine (NBTI, 0.5 nM) for 30 min at 25° C. in the incubation buffer containing 50 mM Tris-HCl (pH 7.4). […] Reactions were terminated by filtration over GF/B glass fibers and washing with the reaction buffer.

Data set [2] deals with SCA3 transgenic mice expressing ataxin-3-Q79. Kind of data set: SCA3 transgenic mice: rotarod test and NeuN staining of pontine nuclei. The settings on record: 4-month-old SCA3 transgenic mice.
Procedure: (A) SCA3 transgenic mice were given drinking water containing vehicle (0.2% DMSO) or T1-11 (0.1 mg/ml) beginning at 4 weeks-old.
Behavioral test. Balance and coordination functions of mice were determined by performing rotarod test. Mice were placed on the moving drum of a rotarod apparatus (Accelerating Model, Ugo Basile Biological Research Apparatus), which was then accelerated until mouse fell from the drum onto a plate to stop the timer. Latency to fall was measured in four daily trials over the course of 4 days.
Immunohistochemical staining. Wild-type or SCA3 transgenic mice were anesthetized and perfused transcardially with 4% paraformaldehyde in PBS. Brain was equilibrated in Tissue-Tek embedding medium and frozen in liquid nitrogen. Coronal sections (20 μm) prepared by cryostat sectioning were permeabilized in 0.1% Triton X-100, and incubated at 4° C. for 48 hours with diluted anti-NeuN monoclonal antiserum (Chemicon). Subsequently, sections were washed and incubated with biotinylated horse anti-mouse IgG followed by incubation with avidin-biotin-horseradish peroxidase complex. The sections were then washed and developed in a diaminobenzidine solution. NeuN-positive neurons were visualized and counted by a Leica DM2500 microscope equipped with a Retiga-2000R CCD camera (QImaging) and a 3-axis computer-controlled MAC 600 motorized stage (Ludl Electronics) with the aid of StereoInvestigator software (MBF Bioscience). Each analysis included the processing of 15 brain sections per mouse.
Data set [3] is described as follows: Oral bioavailability / pharmacokinetic study in ICR mice. The data set is classed as in vivo. Here is the method: To measure oral bioavailability of a test compound, blood samples were collected from male ICR mice (6 weeks old; 20-25 g) after oral (10 mg/kg) or intravenous (1 mg/kg) administrations of the test compound. The blood samples collected at the indicated periods were extracted with methanol containing 0.1% formic acid, and then 10 μL of each extracted sample were injected to UPLC-MSMS for quantitation.
Pharmacokinetic Study. The compound was administered as aqueous solutions in normal saline. Male ICR mice were purchased from BioLASCO Taiwan Co., Ltd. To measure oral bioavailability of test compounds (T1-11 and JMF3464), blood samples were collected from male ICR mice (6 weeks old; […]) after oral (10 mg/kg) or intravenous (1 mg/kg) administrations of test compounds. For T1-11, blood samples were collected at 2, 10, 30, 60, 120, 360 minutes after intravenous administration and at 15, 30, 45, 60, 120, 360 minutes after oral administration. For JMF3464, the blood samples were collected at 2, 10, 30, 60, 120, 240, 360, 480 minutes after intravenous administration and at 15, 30, 60, 90, 120, 240, 360, 480 minutes after oral administration. The blood samples were extracted by methanol with 0.1% formic acid, and then 10 μL of the extracted samples were injected to UPLC-MSMS to for quantitation.
The pharmacokinetic parameters were obtained using a pharmacokinetic program WinNonlin, fitting data to a noncompartmental model. […] The total plasma clearance (CL) was calculated as dose/AUCi.v.. The oral bioavailability (F) of the test compound by oral administration was calculated from the AUC0-∞ of the oral dose divided by the AUC0-∞ of the i.v. dose.

Another data set relates to R6/2 mice. Kind of data set: Transgenic mouse model (R6/2) of Huntington's disease: rotarod and lifespan. Format: in vivo. Here is the method:
FIGS. 3A-B show the effect of JMF3464 on motor deficits and lifespan. […] Rotarod performance (A) and lifespan (B) of these mice were assessed. * p<0.05. *** p<0.005.
As the A2AR and ENT1 are located in the striatum and have been implicated in striatal function, we hypothesized that chronic treatment with JMF3464 would modulate the progression of HD. We tested the effect of JMF3464 in a transgenic mouse model (R6/2) of HD in which A2AR agonists have beneficial effects.
Animals and drug administration. Male R6/2 mice (Mangiarini et al., 1996 Cell. 87:493-506) and littermate controls were originally obtained from Jackson Laboratories (Bar Harbor, Me., USA), and mated to female control mice (B6CBAFI/J). Offspring were identified by a polymerase chain reaction (PCR) genotyping technique of genomic DNA extracted from tail tissues using primers located in the transgene (5′-[…]-3′; SEQ ID NO: 1, and 5′-GGCTGAGGAAGCTGAGGAG-3′; SEQ ID NO: 2) to ensure that the number of CAG repeats remained approximately 150. […] Body weights of mice were recorded once daily. […]
Rotarod performance. Motor coordination was assessed using a rotarod apparatus (UGO BASILE, Comerio, Italy) at a constant speed (12 rpm) over a period of 2 min (Carter et al., 1999 J Neurosci. 19:3248-3257). […] Latency to fall was recorded automatically. […]

The next data set relates to NSC34 cells. As to the kind of experiment: TDP-43 mislocalization caused by AICAR (AMPK activation), immunostaining. Format: cell-based. To be noted: 30 μM, 1 h pretreatment then AICAR 1 mM for 24 hrs. The procedure:
Cells were pretreated with JMF3464 (30 μM) for one hour, and then treated with AICAR (1 mM, Al) in the presence of JMF3464 for additional 24 hrs. TDP-43 (red) localization was analysed by immunostaining. The locations of nuclei were marked by Hochest (blue).
Cell culture and transfection. The motor neuron cell line (NSC34) was a generous gift from Dr. Neil Cashman (Brain Research Centre, The University of British Columbia, Canada), and cultured in a high-glucose Dulbecco's modified Eagle's medium (DMEM) containing 10% fetal calf serum (FCS), 2 mM L-glutamine, and 1% penicillin/streptomycin (Invitrogen GibcoBRL, Carlsbad, Calif., USA) at 37° C. under 5% CO2.

In data set [4] the test system is mice treated with intermittent cold stress. Kind of data set: Intermittent cold stress model of fibromyalgia. Format: in vivo. Here is the method:
FIGS. 10A-C show the analgesic effect of JMF3464 on a mouse model of fibromyalgia. […] Open arrows indicate the time mice received acid injection. Black arrows indicate the time mice received T1-11 (p.o.). […] The analgesic effect of JMF3464 is dose-dependent. The effective dose started from 100 μg/kg (i.p.).
Intermittent cold stress model. The fibromyalgia model was developed by Ueda's group, in which mice were treated with intermittent cold stress for 2 days (Nishiyori and Ueda, 2008 Mol Pain. 4:52). Mice treated with intermittent cold stress developed long-lasting (>2 weeks) mechanical and thermal hyperalgesia. Analgesic effects of JMF3464 (i.p. or p.o.) were tested in these mice 5 days after intermittent cold stress. Mechanical hyperalgesia was assayed by testing the withdrawal response of mouse hindpaws to 0.2-mN von Frey filament stimulation.

The next data set deals with PC12 cells. Kind of data set: Serum deprivation-induced cell death, MTT assay. Format: cell-based, Rat. To be noted: serum-deprived PC12 cells, 24 h. The procedure:
Serum-deprived PC12 cells were treated with or without the indicated reagent(s) for 24 h. Cell viability was expressed as a percentage of the results from MTT assays compared to the mean of a serum-containing control group. Data points represent the mean±SEM (n=3˜6).
Rat PC12 cells purchased from American Type Culture Collection (ATCC; Manassas, Va., USA) were maintained in DMEM supplemented with 10% horse serum and 5% FBS and incubated in a CO2 incubator (5%) at 37° C. LIPOFECTAMINE™ 2000 (Invitrogen) was used as a vehicle to transfer plasmids into cells according to the manufacture's protocol. Plasmids were kindly provided by Dr. Pulst (Department of Neurology, University of Utah, USA). Normally, 5 μg of DNA combined with 5 μl of LIPOFECTAMINE™ 2000 was applied to each well of 6-well plates. The plating number was (1˜1.5)×10^6 cells/well. After transfections for 6 h, cells were treated with reagents for another 24 h. Images were taken with a Zeiss Axiovert 200M inverted fluorescence microscope (Göttingen, Germany).
MTT assay. Survival was assessed by 3-(4,5-dimethylthiazol-2-yl)-2,5-diphenyl tetrazolium bromide (MTT) metabolism assay. […] After discarding the medium, DMSO was applied to the well to dissolve formazan crystals, and the absorbances at 570 and 630 nm in each well were measured on a micro-enzyme-linked immunosorbent assay (ELISA) reader.

[5] abbreviates: 3.7, 1.25, 0.5 and 0.1 mg/kg/day, subcutaneous osmotic pump, vs control mice.

Results on three compounds are retold here after patent US10301348B2, “Compounds for use in prevention and treatment of neurodegenerative diseases and pain” (Academia Sinica, priority 2013, dated 2019).

“Also recorded” adds a separate entry of the source.

human A2AR, sequence (P29274 whole entry): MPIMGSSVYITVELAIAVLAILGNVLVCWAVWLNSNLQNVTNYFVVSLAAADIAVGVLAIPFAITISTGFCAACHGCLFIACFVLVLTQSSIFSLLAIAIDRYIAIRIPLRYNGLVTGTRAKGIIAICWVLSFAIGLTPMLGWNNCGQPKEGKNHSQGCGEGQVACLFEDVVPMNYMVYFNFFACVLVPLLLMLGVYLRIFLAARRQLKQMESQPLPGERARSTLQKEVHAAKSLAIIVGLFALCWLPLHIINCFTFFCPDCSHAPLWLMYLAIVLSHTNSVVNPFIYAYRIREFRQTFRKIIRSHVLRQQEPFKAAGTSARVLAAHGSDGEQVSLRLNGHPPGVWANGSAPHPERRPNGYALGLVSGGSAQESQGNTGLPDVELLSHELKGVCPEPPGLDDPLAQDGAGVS
Procedure for human A2AR: as §1, §2

In the case of `OC[C@H]1O[C@@H](n2cnc3c(NCCc4c[nH]c5ccccc45)ncnc32)[C@H](O)[C@@H]1O` [JMF1907, N^6-[2-(indol-3-yl)ethyl]adenosine], in the data set on TDP-43 transgenic mice (setting [5]), the grip strength entry is reported as “statistical significance was reached at all points for all tested doses; also recorded: performed significantly better”; the rotarod performance entry was “statistical significance was reached at all points for 1.5 & 0.5 mg/kg, from 12-21 wk for 0.1 mg/kg, and 10-12 wk for 3.7 mg/kg; also recorded: performed significantly better”. In the data set with TDP-43 transgenic mice (rotarod and grip strength), the “dose showing the greatest benefit” value stood at 1.25 mg/kg. This compound had a Ki at human A2AR of 4390 nM. In data set [1], this compound gave a Ki of 3470 nM. In addition, in data set [2] (daily oral 1 mg per day), the “pontine neuronal death (NeuN staining)” value is recorded as “significantly prevented neuronal death in the pontine nuclei; also recorded: significantly alleviated pontine neuronal death” and the rotarod performance result is given as “significantly improved rotarod performance”.
As for `OC[C@H]1O[C@@H](n2cnc3c(NCc4ccc(Br)s4)ncnc32)[C@H](O)[C@@H]1O` [JMF3464, N^6-[(5-bromothien-2-yl)methyl]adenosine], in data set [3] (JMF3464 vs T1-11), the “oral absorption relative to T1-11” value is reported as “more than 6 fold”. In data set [3] (male, mouse, plasma, oral 10 mg/kg vs intravenous 1 mg/kg), this compound registered a bioavailability of 17.4%. Further, the “motor coordination assessed by rotarod performance” value in the data set with R6/2 mice (R6/2 mice from 7 weeks old, 0.11 mg/kg/day, subcutaneous osmotic minipump, 6 weeks) is “counteracted the progressive deterioration in motor coordination”. In the data set on R6/2 mice (R6/2 mice, sustained (long term) treatment), the lifespan result was “improved”. Also, in the data set with NSC34 cells, the TDP-43 mislocalization result is “reduced TDP-43 mislocalization; also recorded: normalized TDP-43 mislocalization”. For the same compound, the “effective dose (start)” value in data set [4] (i.p.) is at least 0.1 mg/kg. Further, in data set [4] (i.p., dose-dependent, von Frey mechanical hyperalgesia), the analgesic effect entry is listed as “showed an analgesic effect”. Moreover, the “analgesic effect, oral administration” value in data set [4] (p.o. 1 mg/kg) was “showed an analgesic effect”. For the same compound, the inhibitory constant (Ki) was found to be 1700 nM on human A2AR and 50 nM in data set [1]. For the same compound, the “rotarod performance / ataxia” value in [2] (daily 0.3 mg per day) is “greatly improved the rotarod performance; also recorded: alleviated the ataxia”. Moreover, in data set [2] (daily oral 0.3 mg per day), the “pontine neuronal death (NeuN staining)” value was “significantly ameliorated neuronal death in the pontine nuclei; also recorded: alleviated”.
As for `OC[C@H]1O[C@@H](n2cnc3c(NCc4ccc(Cl)s4)ncnc32)[C@H](O)[C@@H]1O` [JMF3818, N^6-[(5-Chlorothien-2-yl)methyl]adenosine], in the data set on PC12 cells, the “apoptosis of PC12 cells caused by serum withdrawal” value is reported as “inhibited the apoptosis of PC12 cells caused by serum withdrawal”. Besides, the inhibition at 10 µM came out at 54% at human A2AR (read-out: inhibition of A2A receptor) and 96% in data set [1] (read-out: inhibition of adenosine transporter (ENT1)).
